Assays:
patients with MDD [1] = experiment: CSFQ shift analysis (sexual dysfunction / no sexual dysfunction by threshold), same clinical study; assay type: in vivo, Humans; conditions: shift baseline to Day 56, LOCF, 5 mg BID
Description: (§1) A double-blind, randomized, placebo-controlled, parallel-group study was performed to evaluate the efficacy, safety and tolerability of OPC-14523 in patients with MDD. The patients selected for participation in the trial had to meet DSM-IV-TR criteria for MDD (296.2x or 296.3x; diagnosis via MINI) and had had symptoms of depression for at least 2 months before the start of the double-blind treatment. Among other drugs prohibited during the study, patients were prohibited from taking drugs used to enhance sexual function, including, but not limited to, sildenafil, tadalafil and vardenafil, or taking psychopharmacologic drugs.
Each patient was expected to participate for up to 10 weeks. The 10 weeks included: i) a 4- to 10-day screening period, during which potential participants were administered placebo in a single-blind manner; ii) an 8-week double-blind treatment period; and iii) a 4- to 10- day post-treatment visit period. Baseline evaluations, including assessment of sexual function, were conducted on Day −1. The next day, Day 1, the double-blind medication was begun. All treatment was on an outpatient basis.
The dosages studied were 5 mg BID OPC-14523 (10 mg total daily dose of immediate release tablet of Example 1) and placebo. The drugs were taken after meals in the morning and in the evening, about 12 hours apart.
Data on sexual function were collected using the Changes in Sexual Function Questionnaire (CSFQ). The CSFQ is a 14-item self-report measure of sexual functioning vis-â-vis experiences of pleasure, desire, arousal, and orgasm, with a 5-point response option for each item. The 14-item validated CSFQ was developed from a questionnaire comprising 35 and 36 items for female and male respondents, respectively (Clayton et al., Psychopharmacol Bull. 33(4):731-45 (1997) and Clayton et al., Psychopharmacol Bull. 33(4):747-53 (1997), each incorporated herein by reference in its entirety). The CSFQ has also been independently validated (Bobes et al., J Sex Marital Ther. 26(2): 119-31(2000)). The 14-item CSFQ includes items 8, 11, 14, 19-24 from the interview version of the CSFQ (“CSFQ-I”); Clayton et al., Psychopharmacol Bull. 33(4):731-45 (1997)). The CSFQ differs for men and women, reflecting some variation in wording of items. Males were given the male clinical version, CSFQ-M-C, and women were given the female clinical version, CSFQ-F-C. CSFQ-F-C includes items 25, 27, 28, 30 and 31 from the questions for women on the CSFG-I. CSFQ-M-C includes items 28-32 from the questions for men on the CSFQ-I, as well as item 25 from the questions for women.
The 14-item CSFQ has subscales for sexual pleasure (1 item), desire/frequency (2 items), desire/interest (3 items), arousal (3 items), and orgasm (3 items). In addition, a 14-item total score may be calculated. Higher scores are indicative of more favorable sexual functioning. Threshold scores for total and sub-scales have been defined. A score below the threshold score indicates dysfunction.
The construction of shift tables is a routine analysis that is often carried out in the analysis of clinical trial data. For the data herein, the analysis was constructed by categorizing the subjects' scores at baseline and then separately at Day 56 according to having sexual dysfunction (SD) or no sexual dysfunction (NSD). These categories were defined by the threshold values specified in the CSFQ (see Table 4). The cross-classification of the baseline categories with the Day 56 categories results in a 2×2 table with the cells NSD/NSD, NSD/SD, SD/NSD, and SD/SD. Two categories represent the number and percent of subjects who stayed in the same category from baseline to Day 56 (NSD/NSD and SD/SD cells). The other two categories represent the number and percentage of subjects who shifted either for better (SD/NSD cell) or worse (NSD/SD cell). In the tables below, “remained low” refers to the SD/SD category. […]

patients with MDD [2] = experiment: Efficacy on MDD, main indication of the clinical trial; assay type: in vivo, Humans; conditions: main indication in the clinical trial; 5 mg BID, 8 weeks
Description: as §1

SMILES: COc1cccc2c1CCC(=O)N2CCCN1CCN(c2cccc(Cl)c2)CC1 [OPC-14523, 1-[3-[4-(3-chlorophenyl)-1-piperazinyl]propyl]-5-methoxy-3,4-dihydro-2(1H)-quinolone]
- CSFQ Arousal/Excitement: Improved (Low→Normal), % (patients with MDD [1]; all patients (men and women)): 6%
- CSFQ Arousal/Excitement: Remained Low, % (patients with MDD [1]; all patients (men and women)): 84%
- CSFQ Arousal/Excitement: Remained Normal, % (patients with MDD [1]; all patients (men and women)): 7%
- CSFQ Arousal/Excitement: Worsened (Normal→Low), % (patients with MDD [1]; all patients (men and women)): 3 (3%)
- CSFQ Desire/Frequency: Improved (Low→Normal), % (patients with MDD [1]; all patients (men and women)): 13%
- CSFQ Desire/Frequency: Remained Low, % (patients with MDD [1]; all patients (men and women)): 75%
- CSFQ Desire/Frequency: Remained Normal, % (patients with MDD [1]; all patients (men and women)): 9%
- CSFQ Desire/Frequency: Worsened (Normal→Low), % (patients with MDD [1]; all patients (men and women)): 3%
- CSFQ Desire/Interest: Improved (Low→Normal), % (patients with MDD [1]; all patients (men and women)): 7%
- CSFQ Desire/Interest: Remained Low, % (patients with MDD [1]; all patients (men and women)): 78%
- CSFQ Desire/Interest: Remained Normal, % (patients with MDD [1]; all patients (men and women)): 12%
- CSFQ Desire/Interest: Worsened (Normal→Low), % (patients with MDD [1]; all patients (men and women)): 3 (3%)
- CSFQ Orgasm/Completion: Improved (Low→Normal), % (patients with MDD [1]; all patients (men and women)): 12%
- CSFQ Orgasm/Completion: Remained Low, % (patients with MDD [1]; all patients (men and women)): 64%
- CSFQ Orgasm/Completion: Remained Normal, % (patients with MDD [1]; all patients (men and women)): 17%
- CSFQ Orgasm/Completion: Worsened (Normal→Low), % (patients with MDD [1]; all patients (men and women)): 7%
- CSFQ Pleasure: Improved (Low→Normal), % (patients with MDD [1]; all patients (men and women)): 5%
- CSFQ Pleasure: Remained Low, % (patients with MDD [1]; all patients (men and women)): 91%
- CSFQ Pleasure: Remained Normal, % (patients with MDD [1]; all patients (men and women)): 3%
- CSFQ Pleasure: Worsened (Normal→Low), % (patients with MDD [1]; all patients (men and women)): 0 (0%)
- CSFQ Total Score: Improved (Low→Normal), % (patients with MDD [1]; all patients (men and women)): 16%
- CSFQ Total Score: Remained Low, % (patients with MDD [1]; all patients (men and women)): 42%
- CSFQ Total Score: Remained Normal, % (patients with MDD [1]; all patients (men and women)): 39%
- CSFQ Total Score: Worsened (Normal→Low), % (patients with MDD [1]; all patients (men and women)): 3 (3%)
- CSFQ Arousal/Excitement: Improved (Low→Normal), % (patients with MDD [1]; men only): 2%
- CSFQ Arousal/Excitement: Remained Low, % (patients with MDD [1]; men only): 79%
- CSFQ Arousal/Excitement: Remained Normal, % (patients with MDD [1]; men only): 15%
- CSFQ Arousal/Excitement: Worsened (Normal→Low), % (patients with MDD [1]; men only): 4%
- CSFQ Desire/Frequency: Improved (Low→Normal), % (patients with MDD [1]; men only): 13%
- CSFQ Desire/Frequency: Remained Low, % (patients with MDD [1]; men only): 77%
- CSFQ Desire/Frequency: Remained Normal, % (patients with MDD [1]; men only): 9%
- CSFQ Desire/Frequency: Worsened (Normal→Low), % (patients with MDD [1]; men only): 2%
- CSFQ Desire/Interest: Improved (Low→Normal), % (patients with MDD [1]; men only): 2%
- CSFQ Desire/Interest: Remained Low, % (patients with MDD [1]; men only): 81%
- CSFQ Desire/Interest: Remained Normal, % (patients with MDD [1]; men only): 17%
- CSFQ Desire/Interest: Worsened (Normal→Low), % (patients with MDD [1]; men only): 0 (0%)
- CSFQ Orgasm/Completion: Improved (Low→Normal), % (patients with MDD [1]; men only): 9%
- CSFQ Orgasm/Completion: Remained Low, % (patients with MDD [1]; men only): 68%
- CSFQ Orgasm/Completion: Remained Normal, % (patients with MDD [1]; men only): 15%
- CSFQ Orgasm/Completion: Worsened (Normal→Low), % (patients with MDD [1]; men only): 9%
- CSFQ Pleasure: Improved (Low→Normal), % (patients with MDD [1]; men only): 2%
- CSFQ Pleasure: Remained Low, % (patients with MDD [1]; men only): 91%
- CSFQ Pleasure: Remained Normal, % (patients with MDD [1]; men only): 6%
- CSFQ Pleasure: Worsened (Normal→Low), % (patients with MDD [1]; men only): 0 (0%)
- CSFQ Total Score: Improved (Low→Normal), % (patients with MDD [1]; men only): 15%
- CSFQ Total Score: Remained Low, % (patients with MDD [1]; men only): 40%
- CSFQ Total Score: Remained Normal, % (patients with MDD [1]; men only): 43%
- CSFQ Total Score: Worsened (Normal→Low), % (patients with MDD [1]; men only): 2%
- CSFQ Arousal/Excitement: Improved (Low→Normal), % (patients with MDD [1]; women only): 9%
- CSFQ Arousal/Excitement: Remained Low, % (patients with MDD [1]; women only): 88%
- CSFQ Arousal/Excitement: Remained Normal, % (patients with MDD [1]; women only): 1 (1%)
- CSFQ Arousal/Excitement: Worsened (Normal→Low), % (patients with MDD [1]; women only): 1 (1%)
- CSFQ Desire/Frequency: Improved (Low→Normal), % (patients with MDD [1]; women only): 13%
- CSFQ Desire/Frequency: Remained Low, % (patients with MDD [1]; women only): 74%
- CSFQ Desire/Frequency: Remained Normal, % (patients with MDD [1]; women only): 9%
- CSFQ Desire/Frequency: Worsened (Normal→Low), % (patients with MDD [1]; women only): 4%
- CSFQ Desire/Interest: Improved (Low→Normal), % (patients with MDD [1]; women only): 10%
- CSFQ Desire/Interest: Remained Low, % (patients with MDD [1]; women only): 76%
- CSFQ Desire/Interest: Remained Normal, % (patients with MDD [1]; women only): 9%
- CSFQ Desire/Interest: Worsened (Normal→Low), % (patients with MDD [1]; women only): 4%
- CSFQ Orgasm/Completion: Improved (Low→Normal), % (patients with MDD [1]; women only): 15%
- CSFQ Orgasm/Completion: Remained Low, % (patients with MDD [1]; women only): 61%
- CSFQ Orgasm/Completion: Remained Normal, % (patients with MDD [1]; women only): 18%
- CSFQ Orgasm/Completion: Worsened (Normal→Low), % (patients with MDD [1]; women only): 6%
- CSFQ Pleasure: Improved (Low→Normal), % (patients with MDD [1]; women only): 7%
- CSFQ Pleasure: Remained Low, % (patients with MDD [1]; women only): 91%
- CSFQ Pleasure: Remained Normal, % (patients with MDD [1]; women only): 1 (1%)
- CSFQ Pleasure: Worsened (Normal→Low), % (patients with MDD [1]; women only): 0 (0%)
- CSFQ Total Score: Improved (Low→Normal), % (patients with MDD [1]; women only): 16%
- CSFQ Total Score: Remained Low, % (patients with MDD [1]; women only): 43%
- CSFQ Total Score: Remained Normal, % (patients with MDD [1]; women only): 37%
- CSFQ Total Score: Worsened (Normal→Low), % (patients with MDD [1]; women only): 3%
- effect on MDD (patients with MDD [2]): did not demonstrate a statistically significant effect
